Data from patent US10287305B2, “Substituted piperidine compound and use thereof” (Takeda Pharmaceutical Company Limited, priority 2016, dated 2019).
pEC50: −log10 of the molar value.

Molecular target: human orexin type 2 receptor (hOX2R) (Homo sapiens (Human), UniProt O43614)
Test: Measurement of orexin type 2 receptor agonist activity (Experimental Example 2-1, FLIPR TETRA, intracellular Ca2+)
Type: cell-based
Settings: CHO dhfr- cells expressing hOX2R; for Emax: read-out: Emax (%); for Emax at 30 µM: value at 30 uM concentration, orexin B as full agonist = 100%
[1] = agonist activity, 10 nM human orexin B = 100%

human orexin type 2 receptor (hOX2R), sequence (O43614 whole entry): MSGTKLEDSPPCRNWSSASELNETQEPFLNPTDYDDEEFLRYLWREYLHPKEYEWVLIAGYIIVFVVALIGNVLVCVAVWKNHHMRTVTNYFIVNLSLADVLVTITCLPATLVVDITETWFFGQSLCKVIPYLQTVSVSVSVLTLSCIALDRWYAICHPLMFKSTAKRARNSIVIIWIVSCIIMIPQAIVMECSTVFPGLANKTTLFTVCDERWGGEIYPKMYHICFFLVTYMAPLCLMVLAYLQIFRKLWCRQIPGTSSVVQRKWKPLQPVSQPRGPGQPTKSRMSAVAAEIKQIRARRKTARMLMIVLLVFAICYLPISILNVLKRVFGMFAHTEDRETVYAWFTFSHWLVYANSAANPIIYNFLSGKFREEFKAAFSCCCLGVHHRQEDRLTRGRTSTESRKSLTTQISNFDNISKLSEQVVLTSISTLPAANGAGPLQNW

SMILES	pEC50 (FLIPR TETRA, Fluo-4AM)	Emax (FLIPR TETRA, Fluo-4AM) [%]	pEC50 [1]	Emax at 30 µM [%]	Emax (%) (FLIPR TETRA, Fluo-4AM)
CCNC(=O)N1CCC[C@H](NS(C)(=O)=O)[C@@H]1COC1CCN(c2ccccc2F)CC1 (relative stereo) [Example 195, cis-N-ethyl-2-(((1-(2-fluorophenyl)piperidin-4-yl)oxy)methyl)-3-((methylsulfonyl)amino)piperidine-1-carboxamide]	6.60	102			
CS(=O)(=O)N[C@H]1CCCN(C(=O)C(F)F)[C@H]1CO[C@H]1CC[C@@H](c2ccccc2)CC1 (relative stereo) [Example 139, N-(cis-1-(difluoroacetyl)-2-(((cis-4-phenylcyclohexyl)oxy)methyl)piperidin-3-yl)methanesulfonamide]		103			
Cc1ccccc1[C@H]1CC[C@@H](OC[C@@H]2NCCC[C@@H]2NS(C)(=O)=O)CC1 [Example 318, N-((2R,3S)-2-(((cis-4-(2-methylphenyl)cyclohexyl)oxy)-methyl)piperidin-3-yl)methanesulfonamide]	5.96	99			
CS(=O)(=O)N[C@H]1CCCN(C(=O)CC2CC2)[C@H]1COC1CCN(c2ccccc2F)CC1 (relative stereo) [Example 226, N-(cis-1-(cyclopropylacetyl)-2-(((1-(2-fluorophenyl)piperidin-4-yl)oxy)methyl)piperidin-3-yl)methanesulfonamide]	5.66	86			
CC(=O)N1CCC[C@H](NS(C)(=O)=O)[C@@H]1CO[C@H]1CC[C@@H](c2ccccc2C(F)(F)F)CC1 [Example 24, N-((2R,3S)-1-acetyl-2-(((cis-4-(2-(trifluoromethyl)phenyl)cyclohexyl)oxy)methyl)piperidin-3-yl)methanesulfonamide]			7.68	102	
CS(=O)(=O)N[C@H]1CCCN(C(=O)C2CC2)[C@H]1COC1CCN(c2ccccc2F)CC1 [Example 246, N-((2R,3S)-1-(cyclopropylcarbonyl)-2-(((1-(2-fluorophenyl)piperidin-4-yl)oxy)methyl)piperidin-3-yl)methanesulfonamide]	6.14	113			
CCNC(=O)N1CCC[C@H](NS(C)(=O)=O)[C@@H]1CO[C@H]1CC[C@@H](c2ccccc2C(F)(F)F)CC1 [Example 282, (2R,3S)-N-ethyl-3-((methylsulfonyl)amino)-2-(((cis-4-(2-(trifluoromethyl)phenyl)cyclohexyl)oxy)methyl)piperidine-1-carboxamide]	9.26				93
CCc1ccccc1[C@H]1CC[C@@H](OC[C@H]2[C@@H](NS(C)(=O)=O)CCCN2C(C)=O)CC1 [Example 312, N-((2R,3S)-1-acetyl-2-(((cis-4-(2-ethylphenyl)cyclohexyl)oxy)methyl)-piperidin-3-yl)methanesulfonamide]	7.49	98			
COC(=O)N1CCC[C@H](NS(C)(=O)=O)[C@@H]1CO[C@H]1CC[C@@H](c2ccccc2C(F)F)CC1 [Example 324, methyl (2R,3S)-2-(((cis-4-(2-(difluoromethyl)phenyl)cyclohexyl)-oxy)methyl)-3-((methylsulfonyl)amino)piperidine-1-carboxylate]					95
CCNC(=O)N1CCC[C@H](NS(C)(=O)=O)[C@@H]1COC1CCC(c2ccccc2)C1 (relative stereo) [Example 339, cis-N-ethyl-3-((methylsulfonyl)amino)-2-(((3-phenylcyclopentyl)oxy)methyl)-piperidine-1-carboxamide]	7.96	101			
COC(=O)N1CCC[C@H](NS(C)(=O)=O)[C@@H]1COC1CCC(c2ccccc2)C1 (relative stereo) [Example 338, methyl cis-3-((methylsulfonyl)amino)-2-(((3-phenylcyclopentyl)oxy)methyl)-piperidine-1-carboxylate]	6.31	83			
CS(=O)(=O)N[C@H]1CCCN(C(=O)C2CC2)[C@H]1COC1CCN(c2cccc(F)c2Cl)CC1 (relative stereo) [Example 209, N-(cis-2-(((1-(2-chloro-3-fluorophenyl)piperidin-4-yl)oxy)methyl)-1-(cyclopropylcarbonyl)piperidin-3-yl)methanesulfonamide]	5.72	89			
COc1ccccc1[C@H]1CC[C@@H](OC[C@@H]2NCCC[C@@H]2NS(C)(=O)=O)CC1 [Example 27, N-((2R,3S)-2-(((cis-4-(2-methoxyphenyl)cyclohexyl)oxy)methyl)piperidin-3-yl)methanesulfonamide]			6.51	108	
CC(=O)N1CCC[C@H](NS(=O)(=O)N(C)C)[C@@H]1CO[C@H]1CC[C@@H](C(C)C)CC1 (relative stereo) [Example 78, N′-(cis-1-acetyl-2-(((cis-4-isopropylcyclohexyl)oxy)methyl)piperidin-3-yl)-N,N-dimethylsulfuric diamide]			7.20	91	
CCOC(=O)N1CCC[C@H](NS(C)(=O)=O)[C@@H]1CO[C@H]1CC[C@@H](C(C)C)CC1 (relative stereo) [Example 42, ethyl cis-2-(((cis-4-isopropylcyclohexyl)oxy)methyl)-3-((methylsulfonyl)amino)piperidine-1-carboxylate]				97	
CC(=O)N1CCC[C@H](NS(C)(=O)=O)[C@@H]1CO[C@H]1CC[C@@H](c2ccc(F)cc2)CC1 (relative stereo) [Example 112, N-(cis-1-acetyl-2-(((cis-4-(4-fluorophenyl)cyclohexyl)oxy)methyl)piperidin-3-yl)methanesulfonamide]			6.38	94	
CCC(=O)N1CCC[C@H](NS(C)(=O)=O)[C@@H]1COC1CCN(c2ccccc2F)CC1 (relative stereo) [Example 219, N-(cis-2-(((1-(2-fluorophenyl)piperidin-4-yl)oxy)methyl)-1-propionylpiperidin-3-yl)methanesulfonamide]	5.52	91			
CC(=O)N1CCC[C@H](NS(=O)(=O)C(F)(F)F)[C@@H]1CO[C@H]1CC[C@@H](C(C)C)CC1 (relative stereo) [Example 80, N-(cis-1-acetyl-2-(((cis-4-isopropylcyclohexyl)oxy)methyl)piperidin-3-yl)-1,1,1-trifluoromethanesulfonamide]			6.18	98	
CS(=O)(=O)N[C@H]1CCCN(C(=O)C2CC2)[C@H]1COC1CCC(F)(c2cc(F)cc(F)c2)CC1 (relative stereo) [Example 327, N-(cis-1-(cyclopropylcarbonyl)-2-(((4-(3,5-difluorophenyl)-4-fluorocyclohexyl)oxy)methyl)-piperidin-3-yl)methanesulfonamide]	5.59	86			
CS(=O)(=O)N[C@H]1CCCN[C@H]1CO[C@H]1CC[C@@H](c2cc(F)cc(F)c2F)CC1 [Example 239, N-((2R,3S)-2-(((cis-4-(2,3,5-trifluorophenyl)cyclohexyl)oxy)methyl)piperidin-3-yl)methanesulfonamide]	6.55	102			
CC(C)[C@H]1CC[C@@H](OC[C@H]2[C@@H](NS(C)(=O)=O)CCCN2C(=O)N(C)C)CC1 (relative stereo) [Example 40, cis-2-(((cis-4-isopropylcyclohexyl)oxy)methyl)-N,N-dimethyl-3-((methylsulfonyl)amino)piperidine-1-carboxamide]			6.14	91	
